The IC50 is the point on the concentration scale where inhibition reaches its midpoint.

The source of these data is BindingDB's records for doi:10.1016/j.bmcl.2006.01.126 (Amgen, 2006).

SMILES strings stand for the structures.

A short description of this experiment: Inhibition of TARC-mediated CEM cell migration.

Compound `c1ccc2c(Nc3nc(CN(CC4CCCCC4)CC4CCCCC4)cs3)cccc2c1` [4-((bis(cyclohexylmethyl)amino)methyl)-N-(naphthalen-1-yl)thiazol-2-amine] registered a half-maximal inhibitory concentration (IC50) of 0.53 µM.

As to `Cc1csc(Nc2cccc3ccccc23)n1` [4-methyl-N-(naphthalen-1-yl)thiazol-2-amine], half-maximal inhibition (IC50) required 6.4 µM.
